Results on 18 molecules are retold here after US20220127281A1, “HETEROARYL COMPOUNDS THAT INHIBIT G12C MUTANT RAS PROTEINS” (AstraZeneca AB, priority 2017, published 2022).

Assay [1] deals with T1, GDP loaded biotinylated KRas^G12C protein (Homo sapiens, UniProt P01116, G12C).
T1 construct: biotin (biotinylated); made in house
Kind of assay: KRasG12C functional assay. The format is biochemical. As to conditions: HTRF FRET readout of SOS-mediated nucleotide exchange and GST-Raf RBD binding, samples incubated for 4 hrs. On the procedure:
KRasG12C Functional Assay
All enzyme and substrate solutions were prepared in assay buffer containing 20 mM HEPES (pH 7.5), 5 mM MgCl2, 150 mM NaCl, and 0.01% Tween 20. […] In a separate mix 20 nM GST-Raf Ras binding domain (GST-Raf RBD, purified in house) and 4 μg/ml anti-GST XL665 antibody (Cisbio) was prepared in assay buffer containing 50 mM Potassium Fluoride and 0.05 mg/ml BSA and equilibrated for 4 hours before adding 0.6 μM Guanosine 5′-[γ-thio]triphosphate (GTPγS, Sigma) and 0.08 μM SOS (purified in house). 5 μl of the GST-RAF RBD mix was then dispensed into each well of the assay plate. […] This is detected simultaneously via the specific binding interaction between active GTPγS KRas^G12C with GST-Raf RBD which brings the europium and XL665 into close proximity enabling an increased FRET signal to be detected on a Pherastar (BMG) plate reader equipped with the HTRF filter module. […] IC50 values were calculated from normalised dose-response response FRET data curve fitted in Genedata screener (Basel, Switzerland).

The target in assay [2] is T1, GDP loaded biotinylated KRas^G12C protein. Kind of assay: KRasG12C mass spectrometry adducting assay. As to conditions: test compound final concentration 10 μM, 4 μM KRasG12C, react for 4 hours. The format is binding. On the procedure:
KRasG12C Mass Spectrometry Adducting Assay
Enzyme solutions were prepared in assay buffer containing 20 mM HEPES (pH 7.5), 5 mM MgCl2, and 150 mM NaCl. […] The plate was sealed before reading on a Xevo G2 QTOF (Waters) and Acquity LC system (Waters). […] Blank samples were run in between each test sample.
Data was analysed in Mass Lynx software (Waters), the Total ion count (TIC) trace was used and the eluted protein peak data combined. Using the combined spectrum the data was deconvoluted using MaxEnt1 method. The peak area for apo-protein KRas^G12C (APO) and KRAS+relative cmpd mass (adduct) were measured, and a percentage adduct was calculated using the following calculation:
Percent adduct=100*(area of adduct peak/(sum of APO+adduct peaks)

Where [3] appears, read: read-out: KRasG12C functional assay IC50 value.
The mark [4] stands for this setting: KRasG12C functional assay IC50 value (μM).

Where two headings read alike, the source gives them in different places.

T1 sequence (P01116 1-188 isoform P01116-2 G12C): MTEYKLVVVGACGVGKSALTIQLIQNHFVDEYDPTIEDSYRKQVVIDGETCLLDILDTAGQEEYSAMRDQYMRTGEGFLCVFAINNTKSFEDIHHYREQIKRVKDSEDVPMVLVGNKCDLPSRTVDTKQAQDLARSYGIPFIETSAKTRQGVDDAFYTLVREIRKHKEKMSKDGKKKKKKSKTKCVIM

For `C=CC(=O)N1CCN2c3ncnc4cc(-c5cn(C)c6ccccc56)c(Cl)c(c34)OC[C@@H]2C1` [Example 46, 1-[(8aS)-6-Chloro-5-(1-methyl-1H-indol-3-yl)-8a,9,11,12-tetrahydropyrazino[2′,1′:3,4][1,4]oxazepino[5,6,7-de]quinazolin-10(8H)-yl]prop-2-en-1-one], the IC50 in assay [1] (setting [3]) was found to be 1.51 µM. The “KRasG12C M.S. Binding Mean adduct %” value in assay [2] came out at 65%.
In the same order, the values of `C=CC(=O)N1CCN2c3ncnc4cc(-c5cccc(F)c5F)c(Cl)c(c34)OC[C@@H]2C1` [Example 62, 1-[(8aS)-6-Chloro-5-(2,3-difluorophenyl)-8a,9,11,12-tetrahydropyrazino[2′,1′:3,4][1,4]oxazepino[5,6,7-de]quinazolin-10(8H)-yl]prop-2-en-1-one] are 0.355 µM and 100%.
Consider `C=CC(=O)N1CCN2c3ncnc4cc(-c5cccc(F)c5OC)c(Cl)c(c34)OC[C@@H]2C1` [Example 26, 1-[(8aS)-6-Chloro-5-(3-fluoro-2-methoxyphenyl)-8a,9,11,12-tetrahydropyrazino[2′,1′:3,4][1,4]oxazepino[5,6,7-de]quinazolin-10(8H)-yl]prop-2-en-1-one], for which, in assay [1] (setting [3]), the half-inhibitory concentration (IC50) is 2.06 µM. For the same molecule, the “KRasG12C M.S. Binding Mean adduct %” value in assay [2] worked out at 71%.
In the same order, the values of `C=CC(=O)N1CCN2c3ncnc4cc(-c5cccc6ocnc56)c(Cl)c(c34)OC[C@@H]2C1` [Example 57, 1-[(8aS)-5-(1,3-Benzoxazol-4-yl)-6-chloro-8a,9,11,12-tetrahydropyrazino[2′,1′:3,4][1,4]oxazepino[5,6,7-de]quinazolin-10(8H)-yl]prop-2-en-1-one] are 2.42 µM and 68%.
For `C=CC(=O)N1CCN2c3ncnc4cc(-c5ccc(O)cc5)c(Cl)c(c34)OC[C@@H]2C1` [Example 52, 1-[(8aS)-6-Chloro-5-(4-hydroxyphenyl)-8a,9,11,12-tetrahydropyrazino[2′,1′:3,4][1,4]oxazepino[5,6,7-de]quinazolin-10(8H)-yl]prop-2-en-1-one], in that order: 5.36 µM and 17%.
In assay [1] (setting [4]), `C=CC(=O)N1CCN2c3ncnc4cc(-c5c(C)ccc6[nH]ncc56)c(Cl)c(c34)OC[C@@H]2C1` (single isomer, unassigned) [Example 3] had a concentration for half-maximal inhibition (IC50) of 0.082 µM. Also, in assay [2], the “KRasG12C M.S. Binding Mean adduct %” value is on record as 96%.
In the case of `C=CC(=O)N1CCN2c3ncnc4cc(-c5cc(F)ccc5F)c(Cl)c(c34)OC[C@@H]2C1` [Example 40, 1-[(8aS)-6-Chloro-5-(2,5-difluorophenyl)-8a,9,11,12-tetrahydropyrazino[2′,1′:3,4][1,4]oxazepino[5,6,7-de]quinazolin-10(8H)-yl]prop-2-en-1-one], the 50% inhibitory concentration (IC50) in assay [1] (setting [3]) was found to be 0.955 µM. The “KRasG12C M.S. Binding Mean adduct %” value in assay [2] is 67%.
In the case of `C=CC(=O)N1CCN2c3ncnc4cc(-c5cnccc5C)c(Cl)c(c34)OC[C@@H]2C1` [Example 55, 1-[(8aS)-6-Chloro-5-(4-methylpyridin-3-yl)-8a,9,11,12-tetrahydropyrazino[2′,1′:3,4][1,4]oxazepino[5,6,7-de]quinazolin-10(8H)-yl]prop-2-en-1-one], the IC50 in assay [1] (setting [3]) turned out to be 4.03 µM. The “KRasG12C M.S. Binding Mean adduct %” value in assay [2] is listed as 26%.
For `C=CC(=O)N1CCN2c3ncnc4cc(-c5cccc(OC)c5O)c(Cl)c(c34)OC[C@@H]2C1` [Example 27, 1-[(8aS)-6-Chloro-5-(2-hydroxy-3-methoxyphenyl)-8a,9,11,12-tetrahydropyrazino[2′,1′:3,4][1,4]oxazepino[5,6,7-de]quinazolin-10(8H)-yl]prop-2-en-1-one], in that order: 3.03 µM and 73%.
In the same order, the values of `C=CC(=O)N1CCN2c3nc(NCCN(C)C)nc4cc(-c5c(C)ccc6[nH]ncc56)c(Cl)c(c34)OC[C@@H]2C1` [Example 78, 1-((8aS)-6-Chloro-2-((2-(dimethylamino)ethyl)amino)-5-(5-methyl-1H-indazol-4-yl)-8a,9,11,12-tetrahydropyrazino[2′,1′:3,4][1,4]oxazepino[5,6,7-de]quinazolin-10 (8H)-yl)prop-2-en-1-one] are 0.037 µM and 81%.
In the same order, the values of `C=CC(=O)N1CCN2c3ncnc4cc(-c5c(C)ccc6[nH]ncc56)cc(c34)OC[C@H]2C1` [Example 6, 1-[(8aR)-5-(5-Methyl-1H-indazol-4-yl)-8a,9,11,12-tetrahydropyrazino[2′,1′:3,4]-[1,4]oxazepino[5,6,7-de]quinazolin-10 (8H)-yl]prop-2-en-1-one] are 2.37 µM and 68%.
Consider `C=CC(=O)N1CCN2c3ncnc4cc(-c5ccc(F)cc5Cl)c(Cl)c(c34)OC[C@@H]2C1` [Example 50, 1-[(8aS)-6-Chloro-5-(2-chloro-4-fluorophenyl)-8a,9,11,12-tetrahydropyrazino[2′,1′:3,4][1,4]oxazepino[5,6,7-de]quinazolin-10(8H)-yl]prop-2-en-1-one], for which the IC50 in assay [1] (setting [3]) is 0.956 µM. Further, the “KRasG12C M.S. Binding Mean adduct %” value in assay [2] is given as 100%.
Take `C=CC(=O)N1CCN2c3ncnc4cc(-c5cccc6[nH]ccc56)c(Cl)c(c34)OC[C@@H]2C1` [Example 53, 1-[(8aS)-6-Chloro-5-(1H-indol-4-yl)-8a,9,11,12-tetrahydropyrazino[2′,1′:3,4][1,4]oxazepino[5,6,7-de]quinazolin-10(8H)-yl]prop-2-en-1-one]: the IC50 in assay [1] (setting [4]) came to 1.69 µM. Also, the “KRasG12C M.S. Binding Mean adduct %” value in assay [2] stood at 74%.
Regarding `C=CC(=O)N1CCN2c3nc(NC4CCN(C5CC5)CC4)nc4cc(-c5c(C)ccc6[nH]ncc56)c(Cl)c(c34)OC[C@@H]2C1` (single isomer, unassigned) [Example 74], in assay [1] (setting [3]), the IC50 is 0.012 µM. Moreover, the “KRasG12C M.S. Binding Mean adduct %” value in assay [2] is 94%.
In the same order, the values of `C=CC(=O)N1CCN2c3ncnc4cc(-c5cccc6c5COCCO6)c(Cl)c(c34)OC[C@@H]2C1` [Example 43, 1-[(8aS)-6-Chloro-5-(2,3-dihydro-5H-1,4-benzodioxepin-6-yl)-8a,9,11,12-tetrahydropyrazino[2′,1′:3,4][1,4]oxazepino[5,6,7-de]quinazolin-10(8H)-yl]prop-2-en-1-one] are 1.49 µM and 56%.
In the same order, the values of `C=CC(=O)N1CCN2c3ncnc4cc(-c5cccc6oc(=O)n(C)c56)c(Cl)c(c34)OC[C@@H]2C1` [Example 47, 4-[(8aS)-10-Acryloyl-6-chloro-8,8a,9,10,11,12-hexahydropyrazino[2′,1′:3,4][1,4]oxazepino[5,6,7-de]quinazolin-5-yl]-3-methyl-1,3-benzoxazol-2(3H)-one] are 9.82 µM and 9%.
For `C=CC(=O)N1CCN2c3ncnc4cc(-c5ccccc5C(=O)NC)c(Cl)c(c34)OC[C@@H]2C1` [Example 30, 2-[(8aS)-10-Acryloyl-6-chloro-8,8a,9,10,11,12-hexahydropyrazino[2′,1′:3,4][1,4]oxazepino[5,6,7-de]quinazolin-5-yl]-N-methylbenzamide], in that order: 9.41 µM and 22%.
Regarding `C=CC(=O)N1CCN2c3ncnc4cc(-c5c(O)cccc5OC)c(Cl)c(c34)OC[C@@H]2C1` (single isomer, unassigned) [Example 17], the IC50 in assay [1] (setting [3]) is above 100 µM. In assay [2], the “KRasG12C M.S. Binding Mean adduct %” value is given as 0%.
